In experiment [1] the test system is HCV sub-genomic replicon (I377/NS3-3′) in HuH-7 hepatoma cells (GS4.3). Briefly: Quantitation by ELISA of NPTII in the HCV sub-genomic replicon, GS4.3. It counts as cell-based. To be noted: Hepatitis C virus, GS4.3 replicon cells, 72 h incubation. Here is the method: The HCV sub-genomic replicon (I377/NS3-3′, accession No. AJ242652), stably maintained in HuH-7 hepatoma cells, was created by Lohmann et al. Science 285: 110-113 (1999). The replicon-containing cell culture, designated GS4.3, was obtained from Dr. Christoph Seeger of the Institute for Cancer Research, Fox Chase Cancer Center, Philadelphia, Pa.
GS4.3 cells were maintained at 37° C., 5% CO2, in DMEM (Gibco 11965-092) supplemented with L-glutamine 200 mM (100×) (Gibco25030-081), non-essential amino acids (NEAA)(Biowhittaker 13-114E), heat-inactivated (HI) Fetal Bovine Serum(FBS)(Hyclone SH3007.03) and […] geneticin (G418)(Gibco 10131-035). Cells were sub-divided 1:3 or 4 every 2-3 days.
24 h prior to the assay, GS4.3 cells were collected, counted, and plated in 96-well plates (Costar 3585) at 7500 cells/well in 100 μL standard maintenance medium (above) and incubated in the conditions above. To initiate the assay, culture medium was removed, cells were washed once with PBS (Gibco 10010-023) and 90 μl Assay Medium (DMEM, L-glutamine, NEAA, 10% HI FBS, no G418) was added. Inhibitors were made as a 10× stock in Assay Medium, (3-fold dilutions from 10 μM to […] final concentration, final DMSO concentration 1%), 10 μL were added to duplicate wells, plates were rocked to mix, and incubated as above for 72 h.
An NPTII Elisa kit was obtained from AGDIA, Inc. (Compound direct ELISA test system for Neomycin Phosphotransferase II, PSP 73000/4800). Manufacturer's instructions were followed, with some modifications. 10×PEB-1 lysis buffer was made up to include 500 μM PMSF (Sigma P7626, 50 mM stock in isopropanol). After 72 h incubation, cells were washed once with PBS and 150 μL PEB-1 with PMSF was added per well. Plates were agitated vigorously for 15 minutes, room temperature, and then frozen at −70° C. Plates were thawed, lysates were mixed thoroughly, and 100 μL were applied to an NPTII Elisa plate. A standard curve was made. Lysate from DMSO-treated control cells was pooled, serially diluted with PEB-1 with PMSF, and applied to duplicate wells of the ELISA plate, in a range of initial lysate amount of 150 μL. In addition, 100 μL buffer alone was applied in duplicate as a blank. Plates were sealed and gently agitated at room temperature for 2 h. Following capture incubation, the plates were washed 5×300 μL with PBS-T (0.5% Tween-20, PBS-T was supplied in the ELISA kit). For detection, a 1× dilution of enzyme conjugate diluent MRS-2 (5×) was made in PBS-T, into which 1:100 dilutions of enzyme conjugates A and B were added, as per instructions. Plates were resealed, and incubated with agitation, covered, room temperature, for 2 h. The washing was then repeated and 100 μL of room temperature TMB substrate was added. After approximately 30 minutes incubation (room temperature, agitation, covered), the reaction was stopped with 50 μL 3M sulfuric acid. Plates were read at 450 nm on a Molecular Devices Versamax plate reader.
Inhibitor effect was expressed as a percentage of DMSO-treated control signal, and inhibition curves were calculated using a 4-parameter equation: y=A+4B−A)/(1+((C/x)̂D))), where C is half-maximal activity or EC50.
In general terms: ELISA stands for enzyme-linked immunosorbent assay.

The target in experiment [2] is T1, HCV NS3 protease (full-length NS3/NS4A-2 complex) (Hepatitis C virus genotype 1a, UniProt P27958).
T1 construct: Recombinant E. coli or Baculovirus full-length NS3 was diluted to 3.33 μM with assay buffer; host or cells: E. coli or baculovirus (insect cells)
T1 sequence (P27958 1027-1657, one chain of several): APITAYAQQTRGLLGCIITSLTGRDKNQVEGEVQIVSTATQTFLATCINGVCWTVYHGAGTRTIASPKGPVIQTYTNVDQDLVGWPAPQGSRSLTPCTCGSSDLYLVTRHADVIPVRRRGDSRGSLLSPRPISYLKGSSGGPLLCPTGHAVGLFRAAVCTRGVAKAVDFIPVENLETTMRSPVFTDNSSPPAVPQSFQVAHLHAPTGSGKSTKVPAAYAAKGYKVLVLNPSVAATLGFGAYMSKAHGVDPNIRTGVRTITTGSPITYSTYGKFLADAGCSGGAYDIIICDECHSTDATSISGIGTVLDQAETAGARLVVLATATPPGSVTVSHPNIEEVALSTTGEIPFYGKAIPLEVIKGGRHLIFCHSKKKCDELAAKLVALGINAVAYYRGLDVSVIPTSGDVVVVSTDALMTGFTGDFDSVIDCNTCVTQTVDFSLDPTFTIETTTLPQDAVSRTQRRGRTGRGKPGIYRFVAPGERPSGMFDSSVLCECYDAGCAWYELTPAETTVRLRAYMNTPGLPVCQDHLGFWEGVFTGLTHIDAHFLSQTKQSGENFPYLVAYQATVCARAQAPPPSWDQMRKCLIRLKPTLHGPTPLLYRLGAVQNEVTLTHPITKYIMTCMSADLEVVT
Briefly: NS3 Inhibition Assay (NS3-NS4 protease assay, RETS1 substrate). It counts as biochemical. The note with it: NS3/NS4A-2, RETS1 substrate, 10 minutes pre-incubation. Here is the method: NS3 Complex Formation with NS4A-2.
Recombinant E. coli or Baculovirus full-length NS3 was diluted to 3.33 μM with assay buffer and the material was transferred to an eppendorf tube and placed in a water bath in a 4° C. refrigerator. The appropriate amount of NS4A-2 diluted to 8.3 mM in assay buffer was added to an equal the volume of NS3 above (conversion factor—3.8 mg/272 μL assay buffer). The material was transferred to an eppendorf tube and placed in water bath in a 4° C. refrigerator.
After equilibration to 4° C., equal volumes of NS3 and NS4A-2 solutions were combined in an eppendorf tube, mixed gently with a manual pipettor, and incubated for 15 minutes in the 4° C. water bath. Final concentrations in the mixture are 1.67 μM NS3, 4.15 mM NS4A-2 (2485-fold molar excess NS4A-2).
After 15 minutes at 4° C., the NS3/NS4A-2 eppendorf tube was removed and placed in a room temperature water bath for 10 minutes. NS3/NS4A-2 was aliquoted at appropriate volumes and stored at −80° C. (E. coli NS3 run at 2 nM in assay, aliquot at 25 μL. BV NS3 run at 3 nM in assay, aliquot at 30 μL).
Step a. Sample compounds were dissolved to 10 mM in DMSO then diluted to 2.5 mM (1:4) in DMSO. Typically, compounds were added to an assay plate at 2.5 mM concentration, yielding upon dilution a starting concentration of 50 μM in the assay inhibition curve. Compounds were serial diluted in assay buffer to provide test solutions at lower concentrations.
Step 1. The E. coli. NS3/NS4A-2 was diluted to 4 nM NS3 (1:417.5 of 1.67 μM stock−18 μL 1.67 μM stock+7497 μL assay buffer). The BV NS3/NS4A-2 was diluted to 6 nM NS3 (1:278.3 of 1.67 μM stock−24 μL 1.67 μM stock+6655 μL assay buffer).
Step. 2. Using the manual multichannel pipettor, and being careful not to introduce bubbles into the plate, 50 μL assay buffer was added to wells A01-H01 of a black Costar 96-well polypropylene storage plate.
Step 3. Using the manual multichannel pipettor, and being careful not to introduce bubbles into the plate, 50 μL of diluted NS3/NS4A-2 from step 1 was added to wells A02-H12 of the plate in step 2.
Step 4. Using the manual multichannel pipettor, and being careful not to introduce bubbles into the plate, 25 μL of the wells in drug dilution plate in step a was transferred to corresponding wells in assay plate in step 3. The tips on the multichannel pipettor were changed for each row of compounds transferred.
Step 5. Using the manual multichannel pipettor, and being careful not to introduce bubbles into the plate, the contents of the wells from the assay plate in step 4 were mixed by aspirating and dispensing 35 μL of the 75 μL in each well five times. The tips on multichannel pipettor were changed for each row of wells mixed.
Step 6. The plate was covered with a polystyrene plate lid, and the plate from step 5 containing NS3 protease and sample compounds was pre-incubated 10 minutes at room temperature.
While the plate from step 6 is pre-incubating, the RETS1 substrate was diluted in a 15 mL polypropylene centrifuge tube. The RETS1 substrate was diluted to 8 μM (1:80.75 of 646 μM stock−65 μL 646 μM stock+5184 μL assay buffer).
After the plate in step 6 finished pre-incubating, and using the manual multichannel, 25 μL of substrate was added to all wells on the plate. The contents of the wells of the plate were quickly mixed, as in step 5, mixing 65 μL of the 100 μL in the wells.
The plate was read in kinetic mode on the Molecular Devices SpectraMax Gemini XS plate reader. Reader settings: Read time: 30 minutes, Interval: 36 seconds, Reads: 51, Excitation λ: 335 nm, Emission λ: 495 nm, cutoff: 475 nm, Automix: off, Calibrate: once, PMT: high, Reads/well: 6, Vmax pts: 21 or 28/51 depending on length of linearity of reaction
IC50s are determined using a four parameter curve fit equation, and converted to Ki's using the following Km's: • Full-length E. coli NS3-2.03 μM • Full-length BV NS3-1.74 μM • where Ki=IC50/(1+[S]/Km))

Molecule `CC[C@@H]1C[C@@]12NC(=O)[C@@H]1C[C@H](CN1C(=O)[C@@H](N)C(C)(C)C)Oc1nc3c(cccc3n1C(C)C)C1=NC(C(C)C)=C(CCCCCCCCS(=O)(=O)NC2=O)S1` [Compound 110] came in with an EC50 in experiment [1] not below 100 nM. The molecule further showed an IC50 in experiment [2] not below 100 nM.
`CC[C@@H]1C[C@@]12NC(=O)[C@@H]1C[C@H](CN1C(=O)[C@@H](NC(=O)OC(C)(C)C)C(C)(C)C)Oc1nc3c(cccc3n1C(C)C)CCCC/C=C/CCCC1(CC1)S(=O)(=O)NC2=O` [Compound 111] displayed an EC50 in experiment [1] not below 100 nM. The same molecule came in with an IC50 in experiment [2] of 10 to 100 nM.
The matching figures for `CC[C@@H]1C[C@@]12NC(=O)[C@@H]1C[C@H](CN1C(=O)[C@@H](NC(=O)OC(C)(C)C)C(C)(C)C)Oc1nc3c(cccc3n1C(C)C)CCCCCCCCCC1(CC1)S(=O)(=O)NC2=O` [Compound 112]: not below 100 nM and not above 10 nM.
For `CC[C@@H]1C[C@@]12NC(=O)[C@@H]1C[C@H](CN1C(=O)[C@@H](N)C(C)(C)C)Oc1nc3c(cccc3n1C(C)C)CCCCCCCCCC1(CC1)S(=O)(=O)NC2=O` [Compound 113] the same measures were not below 100 nM and 10 to 100 nM.

By EC50 is commonly meant the concentration that produces a half-maximal response. Broadly, the IC50 is the concentration that gives 50% inhibition. Lower therefore signals inhibition by little substance.
